The values that follow come from article PMC9413440, “An Iterative Approach Guides Discovery of the FabI Inhibitor Fabimycin, a Late-Stage Antibiotic Candidate with In Vivo Efficacy against Drug-Resistant Gram-Negative Infections” (ACS Central Science, 2022).

The term MIC denotes the smallest concentration in the dilution series that meets the test's criterion for growth inhibition. A low value points to inhibition by little substance.

Data set [1] concerns the target T1, E. coli FabI (Escherichia coli, UniProt P0AEK4).
T1 construct: His(6) with TEV site (cleaved yes); made in house; host or cells: E. coli BL21(DE3)
Description: In vitro FabI enzymatic inhibition assay. The format is biochemical. Particulars: EcFabI; Morrison's quadratic fit; 5 nM enzyme; read-out: Ki app. As for the experimental part:
(§1) supplemented with 100 µg/mL ampicillin at 37°C until OD600 reached 0.6-0.7. The cells were induced with 1mM IPTG and incubated for 20 hours at 18°C and spun down at 8000 rpm for 15 minutes. Cell pellet was resuspended in the lysis buffer (50 mM Tris-HCl pH 8.0, 500 mM Na Cl, 20 mM imidazole, 10% glycerol, 0.5 mM TCEP, protease inhibitor and Lysonase) and passed through microfluidizer followed by centrifugation and filtration to remove cell debris. The clarified lysate was supplemented with 20 mM imidazole and passed over a HisTrap column (Cytiva) pre-equilibrated with the wash buffer (50 mM Tris-HCl pH 8.0, 500 mM NaCl, 20 mM imidazole, 10% glycerol, 0.5 mM TCEP). The column was washed with the wash buffer and eluted over a 20-500 mM imidazole gradient. The appropriate fractions were pooled, and the histidine tag was removed by TEV cleavage. The protein mixture was passed over a HisTrap column to separate the cleaved protein from the uncleaved ones. The cleaved protein was pooled and passed over an S75 size exclusion column (GE LifeSciences) pre-equilibrated with 50 mM Tris-HCl pH 8.0, 500 mM NaCl, 0.5 mM TCEP and 10% glycerol. Fractions containing pure protein were pooled, concentrated at 10 mg/mL and stored at -80°C. […]
(§2) In vitro FabI enzymatic inhibition assay
(§3) Recombinant E. coli and A. baummani FabI enzymes were used in a continuous NADH absorbance assay (20 µL in 384w format). Compounds and the Crotonyl-CoA substrate (Sigma–Aldrich 28007) were dispensed into a plate (GeinerBio-One 781101). The reaction was initiated by the addition of a reaction master mix solution containing enzyme and NADH (Sigma–Aldrich N8129) suspended in reaction buffer (50 mM HEPES pH 7.4, 150 mM NaCl, 1 mM EDTA, 0.01 mg/mL BSA, 0.01% Tween). Final concentrations were 5 nM enzyme, 150 μM Crotonyl-CoA, 380 μM NADH, 0.05% DMSO in 1x reaction buffer. After shaking for 5 seconds the reaction was monitored at NADH absorbance (340nm, 25°C) using a Molecular Devices SpectraMax M5 microplate reader. The linear portion of the progress curve was fit using plate-reader software. Percentage activity was calculated relative to DMSO only and no-substrate controls in each plate and the data were fit to Morrison’s quadratic using Graphpad Prism 9.3 to obtain apparent inhibition constant (Ki app) values. […]
(§4) 480 Real-Time PCR System as a function of a temperature ramp (25-95°C; 0.1°/s) and the Tm was calculated using the […]

Data set [2] concerns the target A. baumannii FabI (Acinetobacter baumannii, UniProt D0CAD5). Description: In vitro FabI enzymatic inhibition assay. The format is biochemical. Particulars: AbFabI; Morrison's quadratic fit; 5 nM enzyme; read-out: Ki app. As for the experimental part: as §1, §2, §3, §4
Data set [3] can be described thus: Aqueous solubility. The data set is classed as physicochemical.
Data set [4] relates to E. coli ΔtolC (JW5503). Description: MIC, broth microdilution (CLSI). The data set is classed as cell-based, Escherichia coli. As for the experimental part: (§5) II. Materials and Methods for Biological Experiments
(§6) S. aureus ATCC 29213 and E. coli MG1655 were obtained from the American Type Culture Collection (ATCC). E. coli BW25113 and E. coli JW5503 were obtained from the Keio Collection. AR-bank strains were obtained from the Centers for Disease Control and Prevention and FDA Antibiotic Resistance Isolate Bank.
(§7) Antimicrobial susceptibility tests
(§8) Susceptibility testing was performed in biological triplicate, unless noted otherwise, using the micro-dilution broth method as outlined by the Clinical and Laboratory Standards Institute. Bacteria were cultured with cation-adjusted Mueller Hinton broth (Sigma Aldrich, catalogue number: 90922). […]
(§9) NH3: m/z 391.2 → 171.0. Fabimycin: m/z 405.3 → 145.3. Power analysis was not used to determine the number of replicates. Error bars represent the standard error of the mean of three biological replicates. All compounds evaluated in biological assays were ≥95% pure.

The test system of data set [5] is K. pneumoniae AR-0113. As to the kind of experiment: MIC, broth microdilution (CLSI). The format is cell-based. The note with it: Klebsiella pneumoniae, AR0113; K. pneumoniae AR-0113 clinical isolate. As for the experimental part: as §5, §6, §7, §8
(§10) Error bars represent the standard error of the mean of three biological replicates. All compounds evaluated in biological assays were ≥95% pure.
On the technique in general: Dilution methods test growth across graded concentrations, often in twofold steps.

Data set [6] has as its system A. baumannii AR-0313. As to the kind of experiment: MIC, broth microdilution (CLSI). The note with it: Acinetobacter baumannii, AR0313; A. baumannii AR-0313 clinical isolate; † = dose-independent trailing growth. The data set is classed as cell-based. As for the experimental part:
as §5, §6, §7, §8, §10

For data set [7], the system named is E. coli MG1655. As to the kind of experiment: MIC, broth microdilution (CLSI). The data set is classed as cell-based. The note with it: Escherichia coli. As for the experimental part: as §5, §6, §7, §8, §9
Data set [8] deals with K. pneumoniae AR-0066. As to the kind of experiment: MIC, broth microdilution (CLSI). The format is cell-based. Particulars: Klebsiella pneumoniae, AR0066; K. pneumoniae AR-0066 clinical isolate. As for the experimental part:
as §5, §6, §7, §8, §9

Data set [9] concerns K. pneumoniae BAA-2472. As to the kind of experiment: MIC, broth microdilution (CLSI). The format is cell-based. The note with it: Klebsiella pneumoniae, BAA2472. As for the experimental part:
as §5, §6, §7, §8, §9

The subject of data set [10] is K. pneumoniae AR-0560. Description: MIC, broth microdilution (CLSI). The data set is classed as cell-based. The note with it: Klebsiella pneumoniae, AR0560; K. pneumoniae AR-0560 clinical isolate. As for the experimental part: as §5, §6, §7, §8, §9
The subject of data set [11] is E. coli AR-0048. Description: MIC, broth microdilution (CLSI). The data set is classed as cell-based. The note with it: Escherichia coli, AR0048; E. coli AR-0048 clinical isolate. As for the experimental part: as §5, §6, §7, §8, §9
Data set [12] deals with A. baumannii AR-0273. Description: MIC, broth microdilution (CLSI). The data set is classed as cell-based. Particulars: Acinetobacter baumannii, AR0273; A. baumannii AR-0273 clinical isolate. As for the experimental part: as §5, §6, §7, §8, §9
Data set [13] relates to S. aureus ATCC 29213. Description: MIC, broth microdilution (CLSI). The data set is classed as cell-based. The note with it: Staphylococcus aureus, ATCC29213; S. aureus 29213. As for the experimental part:
as §5, §6, §7, §8, §9

Data set [14] has as its system A. baumannii AR-0299. Description: MIC, broth microdilution (CLSI). The data set is classed as cell-based. The note with it: Acinetobacter baumannii, AR0299; A. baumannii AR-0299 clinical isolate; † = dose-independent trailing growth. As for the experimental part:
as §5, §6, §7, §8, §9

In data set [15] the test system is A. baumannii AR-0033. Description: MIC, broth microdilution (CLSI). The data set is classed as cell-based. The note with it: Acinetobacter baumannii, AR0033; A. baumannii AR-0033 clinical isolate; † = dose-independent trailing growth. As for the experimental part:
as §5, §6, §7, §8, §9

The subject of data set [16] is E. coli AR-0085. Description: MIC, broth microdilution (CLSI). The format is cell-based. The note with it: Escherichia coli, AR0085; E. coli AR-0085 clinical isolate. As for the experimental part: as §5, §6, §7, §8, §9
Data set [17] deals with E. coli MG1655. Also on record: method as in PMID 31740764. The note with it: cited from earlier work.
On the set-up of data set [18]: method as in earlier work. The note with it: mice, 20% SBE-β-CD in H2O, IP, ref 19 (SI ref 3), cited from earlier work.

SMILES strings stand for the structures. Values after ≈ are worked out from the molar mass of the structure shown.

T1 sequence (P0AEK4 whole entry): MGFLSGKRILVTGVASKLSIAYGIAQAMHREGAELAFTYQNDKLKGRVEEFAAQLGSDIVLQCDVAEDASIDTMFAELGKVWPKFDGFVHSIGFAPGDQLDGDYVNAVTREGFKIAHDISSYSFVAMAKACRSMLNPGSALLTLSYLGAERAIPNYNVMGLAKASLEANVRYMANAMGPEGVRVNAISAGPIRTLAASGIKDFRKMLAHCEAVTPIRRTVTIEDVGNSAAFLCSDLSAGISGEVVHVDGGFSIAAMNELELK
Sequence of A. baumannii FabI (D0CAD5 entry or part of it): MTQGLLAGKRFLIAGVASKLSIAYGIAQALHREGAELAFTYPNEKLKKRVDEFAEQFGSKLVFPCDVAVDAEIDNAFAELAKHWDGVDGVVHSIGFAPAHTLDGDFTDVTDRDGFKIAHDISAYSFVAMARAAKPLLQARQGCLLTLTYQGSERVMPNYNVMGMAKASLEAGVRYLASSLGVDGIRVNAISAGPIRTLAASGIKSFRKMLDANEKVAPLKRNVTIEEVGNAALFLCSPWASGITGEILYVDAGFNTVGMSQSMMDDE

In the case of `Cc1c(CN(C)C(=O)/C=C/c2cnc3c(c2)CC[C@H](NC(=O)OC(C)(C)C)C(=O)N3)oc2ccccc12` [(S)-11], the Ki was 60 ± 10 nM in data set [1] and 947 ± 234 nM in data set [2]. In addition, the aqueous solubility result in data set [3] was “limited aqueous solubility”. Further, the MIC in data set [4] (Escherichia coli) came out at 0.125 µg/mL (≈ 0.248 µM); in [5] it was 32 µg/mL (≈ 63.4 µM); in data set [6], 64 µg/mL (≈ 127 µM); in data set [7] it was 8 µg/mL (≈ 15.9 µM); in data set [8], 64 µg/mL (≈ 127 µM); in [9], 32 µg/mL (≈ 63.4 µM). In addition, the MIC worked out at 32 µg/mL (≈ 63.4 µM) in data set [10]; 16 µg/mL (≈ 31.7 µM) in [11]; 8 µg/mL (≈ 15.9 µM) in data set [12]; 0.016 µg/mL (≈ 0.0317 µM) in data set [13]; 8 µg/mL (≈ 15.9 µM) in data set [14]; 64 µg/mL (≈ 127 µM) in data set [15]. In data set [16], this molecule gave an MIC of 8 µg/mL (≈ 15.9 µM).
In the case of `Cc1c(CN(C)C(=O)/C=C/c2cnc3c(c2)CC(N)C(=O)N3)oc2ccccc12` (centres unmarked) [Debio-1452-NH3, reference compound], the Ki in data set [1] came out at 9 ± 1 nM; in data set [2] it was 13 ± 2 nM. Also, the “accumulation in Gram-negative bacteria (class in Figure 1A)” value in data set [17] is “Accumulator”. The MIC in data set [4] (E. coli ΔtolC = JW5503, efflux-deficient) stood at 0.062 µg/mL (≈ 0.159 µM); in [5] it was 32 µg/mL (≈ 82 µM); in data set [6], 32 µg/mL (≈ 82 µM); in data set [8], 32 µg/mL (≈ 82 µM); in data set [9], 16 µg/mL (≈ 41 µM); in [10], 32 µg/mL (≈ 82 µM). The MIC was determined as 32 µg/mL (≈ 82 µM) in data set [11]; 32 µg/mL (≈ 82 µM) in data set [12]; 32 µg/mL (≈ 82 µM) in data set [14]; 32 µg/mL (≈ 82 µM) in [15]; 16 µg/mL (≈ 41 µM) in data set [16]. Also, the “Multi-day QD dosing, MTD” value in data set [18] (5d) is recorded as 50 mg/kg. In addition, the “Single-dose MTD” value in data set [18] is 50 mg/kg.
